Measurements as given in patent US6706738B2, “Substituted bicyclic heteroaryl compounds and their use as integrin antagonists” (Aventis Pharma Limited, priority 1999, dated 2004).

melting point: 195 to 196 °C (dec.)
Structure (SMILES): Cc1ccccc1Nc1nc2ccc(CC(=O)Nc3ccc(C(C)CC(=O)O)nc3)cc2o1 (racemic) [Example 1, (3RS)-3-{5-[2-(2-o-Tolylamino-benzoxazol-6-yl)-acetylamino]-pyrid-2-yl}-butyric acid]
